# Patent US20050255538A1, “Methods for screening for AcrAB efflux pump inhibitors” (priority 2002, published 2005)
# Tested on: E. coli ΔemrE mutants
# Assay: Antimicrobial susceptibility assays of efflux pump deletion mutants
# Format: cell-based, Escherichia coli
# Conditions: ΔemrE mutants in ΔacrAB ΔacrEF background vs parent
# Procedure: The PCR mixtures contained 50 ng of E. coli chromosomal DNA, 40 pmol of each primer, 0.2 mM (each) deoxynucleoside triphosphate, 2 mM MgSO4 and 10% (vol/vol) dimethylsufoxide in 1× thermo reaction buffer (New England Biolabs, Mississauga, Ontario, Canada) and were heated for 5 min at 94° C. before the addition of 2 U of Vent DNA polymerase (New England Biolabs) per reaction. The reaction was then processed for 30 cycles of 40 sec: at 94° C., 40 sec at 56° C. and 40 sec at 72° C. before finishing with 10 min at 72° C. The PCR products to be used in each deletion were purified using a Qiaquick™ PCR purification kit (Qiagen Inc.), digested with BamHI and EcoRI or EcoRI and Sail as appropriate, and cloned into EcoRI-SalI-restricted pBluescript II SK(+) via a three-piece ligation. The resultant vectors, pXZL967 and pXZL983, carried deletions in emrE and emrD respectively, as confirmed by restriction analysis and nucleotide sequencing. Digestion of plasmids pXZL967 and pXZL983, with BamHI and SalI released fragments carrying the PCR-generated deletions of emrE (246 bp in-frame deletion), and emrD (1101 bp in-frame deletion), respectively, which were then cloned into BamHI-SalI-restricted pK03, yielding pXZL975, pXZL987, and pXZL1024 (selected on chloramphenicol (30 μg/ml)-containing LB agar at 30° C.). […]
structure (smiles),measurement,value
CC[n+]1c(-c2ccccc2)c2cc(N)ccc2c2ccc(N)cc21 [ethidium bromide],fold increase in MIC values (more susceptible),32 fold
